From ChEMBL document CHEMBL3507680, “University of Dundee, Gates Library screen for HepG2 cell viability”

Test: Human HepG2 cell viability assay in 384 well format
Assay type: toxicity, cell-based
Parameters: dose 125 nL, time 70.5 hour; cytotoxicity at 70.5 h: concentration not given beside the values
Details: HepG2 cells, read-out: Inhibition

SMILES	cytotoxicity at 70.5 h
COc1ccccc1CNC(=O)CS(=O)(=O)Cc1ccccc1	-3.93%
CCOc1ncnc2c1CCN(C(=O)c1cnccn1)CC2	1.88%
Cc1cnc(N2CC[C@@H]3CN(CCC(C)C)S(=O)(=O)[C@@H]3CC2)nc1	-1.61%
O=C(c1ccnnc1)N1C[C@H]2CCC[C@@H](OCc3cccnc3)[C@@H]2C1	-3.26%
c1ccc(OCC2CC3(CCN(Cc4ccncc4)CC3)CO2)nc1 (stereo unspecified)	-18.6%
O=S(=O)(C1CC1)N1CCC2(COCc3cnc(N4CCOCC4)nc32)C1 (stereo unspecified)	4.94%
O=C(c1ccco1)N1CCC2(CCOC2)C1 (stereo unspecified)	-13.3%
Cc1nc(CN2CCCn3c(nc(Cn4ccnc4)cc3=O)C2)cs1	-21.2%
CC(=O)N1CC[C@H]2OCC[C@@H](C(=O)N3CCCCO3)[C@@H]2C1	-20.9%
O=C([C@@H]1CCO[C@@H]2CCN(Cc3cccnc3)C[C@H]21)N1CCCCO1	-13.8%
O=C1CC[C@H]2[C@H](CCN2C(=O)C2CCCO2)N1CCN1CCCC1 (stereo partly specified)	-21.6%
O=C1CC[C@H]2[C@H](CCN2C(=O)C2CCCO2)N1Cc1ccncc1 (stereo partly specified)	7.56%
c1cncc(OCc2noc3c2CN(Cc2ccoc2)CC3)c1	-15.9%
CN(C)S(=O)(=O)N1CC[C@@H]2CN(Cc3cnn(C)c3)C[C@@H]2C1	32.1%
O=C(COc1ccccc1)N1CCC[C@]2(C[C@H](OCC3CC3)CO2)C1	-7.58%
CCO[C@@H]1CO[C@@]2(CCCN(C(=O)c3ccc(OC)c(F)c3)C2)C1	9.35%
CS(=O)(=O)NC[C@]12COC[C@H]1CN(C(=O)c1ccoc1)C2	-3.34%
O=C1CCCN1CC1CN(C(=O)CC2CCCC2)Cc2nccn2C1 (stereo unspecified)	-8.43%
CCC1=N[C@@]2(CC[C@@H]3CN(S(=O)(=O)CC)C[C@@H]32)C(=O)N1CC(C)C	-1.65%
O=C(NCC1CC1)C1CN(C(=O)c2ccncc2)CC12CCOCC2 (stereo unspecified)	3.6%
O=C(NCC1OCCc2cn(CC3CC3)nc21)c1ccsc1 (stereo unspecified)	47.4%
Cn1cccc1CN1CCC2(CCCN(C(=O)Cc3cccnc3)C2)C1 (stereo unspecified)	24.8%
c1csc(CN2CC[C@H]3C[C@H](c4ccncn4)O[C@@H]3C2)c1	-13.1%
Cn1cc(C(=O)N2C[C@@H]3COC[C@]3(COCc3cccnc3)C2)cn1	-12.3%
COCCC(=O)N1C[C@@H]2COC[C@]2(COCc2cccnc2)C1	-13.6%
CNC(=O)c1cc2c(nc1NCC1CC1)CCN(S(=O)(=O)C1CC1)CC2	2.84%

SMILES	cytotoxicity at 70.5 h
O=C(c1ccc[nH]1)N1CCCC2(CCN(c3ccsc3)C2=O)C1 (stereo unspecified)	-11.6%
O=C(c1ccsc1)N1CC[C@H]2C[C@@H](c3nnc(C4CC4)o3)O[C@@H]2C1	-12.7%
Cc1nn2c(=O)/c(=C\c3cccs3)sc2nc1=O	-5.48%
CCn1cc(CN(C)S(=O)(=O)c2ccc(C)c(C)c2)cn1	0.0869%
COc1ccc(CCC(=O)N(C)Cc2c(C)nn(C)c2C)cc1	1.57%
CC(C(=O)NC1CCN(C)CC1)n1nc(C(F)(F)F)c(Cl)c1C1CC1 (stereo unspecified)	11.6%
Cc1nn(CC(=O)Nc2ccon2)cc1Br	-10.2%
CCOC1(C)C(=O)c2ccccc2N1Nc1ccccc1C(=O)CC (stereo unspecified)	-14.4%
O=C(CCCC(=O)NCc1cccc(Br)c1)NCCN1CCCC1	1.2%
COc1cc(CNc2ccc(Cl)cc2)ccc1OCC(=O)O	-19.8%
O=C(COCC(=O)N(c1ccccc1)c1ccccc1)N1CCCCC1	19.2%
COc1cc(CNc2ccccc2Cl)ccc1OCC(=O)O	19%
CCN1CCN(S(=O)(=O)c2cc(C)c(C)cc2Br)CC1	-6.61%
CC(C)C(=O)Nc1cccc(C(=O)Nc2ccccn2)c1	-25.2%
Cc1cc(C)cc(NC(=O)Nc2c(O)oc3ccccc3c2=O)c1	-6.68%
CCOC(=O)c1sc(NC(=O)C(C)(C)C)c(C#N)c1C	41.6%
O=C(NCCCN1CCOCC1)c1cccc(OCc2ccccc2)c1	-2.84%
Nc1nnnn1NCc1ccccc1C(F)(F)F	-8.4%
CN(C)c1ccc(CC2CCN(c3cnccn3)C2)nn1 (stereo unspecified)	-8.95%
NC(=O)CN1CCCCC1c1ccc(-n2ccnc2)nc1 (stereo unspecified)	-3.85%
Cc1cc(N2CCOC(c3ccncn3)C2)ncn1 (stereo unspecified)	-0.0886%
CN(C)C(=O)c1cccc(C2CCN(c3ncccn3)CC2)n1	-4.03%
Cc1ccnc(NC(=O)c2cncc(C3CCNCC3)n2)c1	-10.4%
COc1ccc(CC2CN(C(=O)c3coc(C)n3)CCO2)cc1 (stereo unspecified)	-9.96%
Cc1nc(C(=O)N2CCOC(Cc3ccc(F)cc3)C2)co1 (stereo unspecified)	-3.27%
O=C(c1ccco1)N1CCc2ncnc(Oc3cccnc3)c2CC1	-0.464%

SMILES	cytotoxicity at 70.5 h
CCc1cnc(N2CC[C@@H]3CN(CCC(C)C)S(=O)(=O)[C@@H]3CC2)nc1	-4.3%
CN(C)C(=O)CN1C[C@H]2CCN(c3ncccn3)CC[C@H]2S1(=O)=O	-0.338%
O=C(NCc1cccs1)C1CNCC12CCOCC2 (stereo unspecified)	0.759%
CN1CCC2(CCN(Cc3nccs3)CC2)C1=O	-1.5%
COCCNC(=O)[C@@H]1CC[C@@H]2[C@@H](CCN2c2ncc(F)cn2)O1	-3.55%
COc1ccccc1CN1CC[C@]2(C[C@H](OC)CO2)C1	-12.6%
CN1CCC2(COCc3cnc(N4CCOCC4)nc32)C1 (stereo unspecified)	-16.8%
O=C(NC[C@]12COC[C@H]1CN(Cc1nccs1)C2)c1ccccc1	-15%
Cc1cccc(CN2CCC3(CCCN(C(=O)NC4CC4)C3)C2=O)n1 (stereo unspecified)	25.5%
Cc1ccoc1C(=O)N1C[C@@H]2[C@@H](C1)OCC(=O)N2Cc1cccnc1	29.7%
c1ccc(N2CCOC3(CCCN(c4nncs4)C3)C2)nc1 (stereo unspecified)	-2.74%
Cc1cccc(CN2CCC3(CCCN(C(=O)c4ccsc4)C3)C2=O)n1 (stereo unspecified)	5.46%
CNC(=O)c1cc2c(nc1N(C)C)CCN(S(=O)(=O)C1CC1)CC2	20.2%
O=C(c1cccnc1)N1CCC2(CC1)CCN(c1ccsc1)C2=O	-4.42%
Cc1noc([C@H]2C[C@@H]3CCN(CC4CC4)C[C@H]3O2)n1	-7.86%
CNC(=O)c1cc2c(nc1N(C)C)CCN(S(=O)(=O)CC(C)C)CC2	-12.2%
CC(=O)N1[C@H](Cn2cncn2)C[C@@H]2CN(Cc3ccncc3)CC[C@@H]21	-3.75%
CN1CCN(Cc2cn3c(n2)CN(C(=O)c2cccn2C)CC3)CC1	-4.16%
Cn1cnc2c(N3CCCC3)nc(C3CCN(CC4CC4)CC3)cc21	-0.352%
O=C(N1CCOCC1)[C@@]12CCO[C@@H]1CCN(CCN1CCCCC1)C2	-20.4%
Cn1cc(CN2C[C@@H]3CN(Cc4ccoc4)CCO[C@@H]3C2)cn1	-3.44%
CO[C@H]1CCN(Cc2ccccn2)[C@@H]2CN(Cc3ccco3)C[C@H]12	-20.1%
CN1CC(=O)N(c2cccc(F)c2)CC12CCN(Cc1cccnc1)C2 (stereo unspecified)	3.06%
CCOC(=O)[C@]12CCCN(Cc3nccs3)C[C@H]1CN(CCN(C)C)C2	-10.1%
